Like-named read-outs stand apart in the source and are kept apart here.
System: adult brown dog ticks (Rhipicephalus sanguineus)
Assay: Tick DMSO contact assay, Compound 1 with reduced dosages of amitraz, Example 16
Format: in vivo
Description: Scintillation vials were treated with commercial and experimental compounds using the same procedure described in Example 12 above. The treated vials were used to determine the contact toxicity of compounds against adult brown dog ticks (Rhipicephalus sanguineus). The ticks were supplied by Ecto Services Inc. Henderson, N.C.
Unfed adult ticks were released into a metal pan and 10 living ticks were aspirated into each vial. […] Two replicates were tested for each treatment and the results were averaged. Ticks were stimulated by gently exhaling in the vials. Within the same time period, the addition of amitraz to an equal dosage of compound 1 increased mean mortality.

[1] = 4 h, read-out: 4 hour % Mortality Rep 1
[2] = 4 h, read-out: 4 hour % Mortality Rep 2
[3] = 4 h, read-out: 4 hour Avg. % Mortality
[4] = 24 h, read-out: 24 hour % Mortality Rep 1
[5] = 24 h, read-out: 24 hour % Mortality Rep 2
[6] = 24 h, read-out: 24 hour Avg. % Mortality
[7] = 48 h, read-out: 48 hour % Mortality Rep 1
[8] = 48 h, read-out: 48 hour % Mortality Rep 2
[9] = 48 h, read-out: 48 hour Avg. % Mortality

Cc1ccc(/N=C/N(C)/C=N/c2ccc(C)cc2C)c(C)c1 [Amitraz, amitraz]
0%: mortality at 3.13 ppm [1] | mortality at 6.25 ppm [1] | mortality at 12.5 ppm [1] | mortality at 3.13 ppm [2] | mortality at 6.25 ppm [2] | mortality at 12.5 ppm [2] | mortality at 3.13 ppm [3] | mortality at 6.25 ppm [3] | mortality at 12.5 ppm [3] | mortality at 3.13 ppm [4] | mortality at 6.25 ppm [4] | mortality at 12.5 ppm [4] | mortality at 3.13 ppm [5] | mortality at 6.25 ppm [5] | mortality at 12.5 ppm [5] | mortality at 3.13 ppm [6] | mortality at 6.25 ppm [6] | mortality at 12.5 ppm [6] | mortality at 3.13 ppm [7] | mortality at 6.25 ppm [7] | mortality at 12.5 ppm [7] | mortality at 3.13 ppm [8] | mortality at 6.25 ppm [8] | mortality at 12.5 ppm [8] | mortality at 3.13 ppm [9] | mortality at 6.25 ppm [9] | mortality at 12.5 ppm [9]

Source: patent publication US8450357B2, “Compositions comprising an aryl pyrazole and/or a formamidine, methods and uses thereof” (Merial Limited, priority 2008, dated 2013)
